Measurements: patent publication US4683221A, “Lymphocyte-activating polypeptides” (Scripps Clinic and Research Foundation, priority 1986, dated 1987)
Ends that are not written are not given here.

Legend:
Type in all cases: cell-based
[1] = system: human plastic-adherent monocytes; assay: Prostaglandin E secretion (radioimmune assay); conditions: 25 ug/ml of p23 or an equimolar amount of another polypeptide, 24 hours; initial data
Procedure: (§1) The cell lines used in these studies were: (1) murine plastic-adherent macrophages; (2) human plastic-adherent monocytes; and (3) the murine macrophage-like cell line denominated P388.D1 [Snyderman et al., J. Immunol., 119, 2060 (1977)]. […] Thereafter, the cell culture supernatant was assayed for the presence of a prostaglandin E using a commercially available radioimmune assay (Seragen).

[2] = system: murine macrophage-like cell line denominated P388.D1; assay: Prostaglandin E secretion (radioimmune assay); conditions: 25 ug/ml of p23 or an equimolar amount of another polypeptide, 24 hours; initial data
Procedure: as §1

[3] = system: murine plastic-adherent macrophages; assay: Prostaglandin E secretion (radioimmune assay); conditions: 25 ug/ml of p23 or an equimolar amount of another polypeptide, 24 hours; initial data
Procedure: as §1

[4] = system: mouse spleen cells; assay: Polyclonal antibody response assay (Ig secretion measured by ELISA); conditions: C57BL/6 spleen cells, 5 days; equimolar amounts of polypeptide, 1.5 mg/ml of p23 as standard
Source text: This assay measures the activity of a polypeptide in potentiating an in vitro polyclonal antibody response using mouse spleen cells.
For the generation of immunoglobulin (Ig) secretion response, spleen cells from inbred male 8-15 week old C57BL/6 mice (The Jackson Laboratory, Bar Harbor, ME) were suspended in RPMI 1640 medium (M.A. Bioproducts, Walkersville, MD) supplemented with 2 millimolar (mM) L-glutamine, one percent BME vitamins (GIBCO, Grand Island, NY), 5×10^-5 molar (M) 2-mercaptoethanol, 7.5 percent fetal calf serum (FCS;GIBCO), and 0.001 percent gentamicin (Schering Corp., Kenilworth, NJ). Cells (6×10^5) in 0.2 milliliters (ml) of the supplemented medium were added to flat-bottomed microtiter plate wells (No. 3596: Costar, Cambridge, MA). Cultures were established in triplicate, and a polypeptide-containing composition was added in a volume of 50 microliters per well (ul/well).
To establish comparison between polypeptides of different lengths, equimolar amounts of polypeptide were used, with 1.5 milligrams per milliter (mg/ml) of the 23-residue polypeptide corresponding in sequence to positions 335-357 of the human IgGl myeloma protein as standard. […] Supernatants from triplicate cell culture wells were harvested, pooled, centrifuged to remove cells and stored at -20° C. Concentrations of Ig in the supernatants were determined by the ELISA assay described hereinbelow.
The ELISA utilized to measure polyclonal activation was a so-called "sandwich" assay in which the assayed entity, mouse Ig molecules, are bound to solid phase-bound anti-mouse Ig antibodies and then bound by indicator (alkaline phosphatase)-linked anti-mouse Ig antibodies.
(B) 100 Microliters of various dilutions of either the Ig standard or culture supernatants were then admixed in PBS-Tween. […]
Each well then received 100 ul of 1 mg p-nitrophenyl phosphate (Sigma Chemical Co., St. Louis, MO) in 0.05 M carbonate, pH 9.8. The reaction was stopped with 50 ml of 0.3 N NaOH, and the light absorbance at 410 nanometers (nm) was measured by using a Dynatech model MR600 ELISA reader. […]

Row | Substance | secretion of a prostaglandin E into the culture medium [1] | secretion of a prostaglandin E into the culture medium [2] | secretion of a prostaglandin E into the culture medium [3] | Ig Found (amount of polyclonal Ig molecules found in the assay) [4] [µg/mL]
1 | LPPSREE [I-51(a), Leu-Pro-Pro-Ser-Arg-Glu-Glu] | incapable of inducing | incapable of inducing | incapable of inducing | 10.2
2 | YTLPPSREE [I-51(b)] | incapable of inducing | incapable of inducing | incapable of inducing | 10.7
3 | QVYTLPPSREE [I-51(c)] | incapable of inducing | incapable of inducing | incapable of inducing | 11.7
